Measured values: BindingDB's records for doi:10.7270/Q2639NCQ (The Scripps Research Institute Molecular Screening Center, 2013)

target: T1, Mitochondrial peptide methionine sulfoxide reductase (Bos taurus, UniProt P54149)
T1 sequence (P54149 whole entry): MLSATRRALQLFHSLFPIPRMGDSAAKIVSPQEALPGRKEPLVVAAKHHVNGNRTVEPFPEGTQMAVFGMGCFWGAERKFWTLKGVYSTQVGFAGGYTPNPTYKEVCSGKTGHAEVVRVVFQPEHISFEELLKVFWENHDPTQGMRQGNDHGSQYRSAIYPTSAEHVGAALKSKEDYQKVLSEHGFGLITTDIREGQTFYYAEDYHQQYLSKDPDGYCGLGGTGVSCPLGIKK

| Compound | IC50 |
| --- | --- |
| COC(=O)CN(c1nc(C)c(Br)c(OC)n1)S(=O)(=O)c1ccccc1 [[Benzenesulfonyl-(5-bromo-4-methoxy-6-methyl-pyrimidin-2-yl)-amino]-acetic acid methyl ester] | > 155 µM |
| CC(Nc1cc(N2CCN(S(C)(=O)=O)CC2)ccc1[N+](=O)[O-])c1ccccc1 (stereo not given) [5-[4-(methylsulfonyl)-1-piperazinyl]-2-nitro-N-(1-phenylethyl)aniline] | > 155 µM |
| Cc1ccc(NS(=O)(=O)c2ccc3c(c2)C(=O)c2ccccc2C3=O)c(C)c1 [SMR000207645] | > 155 µM |
| c1ccc(-n2nnnc2-n2nnc3ccccc32)cc1 [1-(1-phenyl-1,2,3,4-tetrazol-5-yl)benzotriazole] | > 155 µM |
| COc1ccc2nc(C)cc(N=NCc3ccc(F)cc3)c2c1 [N-[(4-fluorophenyl)methylideneamino]-6-methoxy-2-methyl-4-quinolinamine] | 12.8 µM |
| COc1ccc(/C=N/NC(=O)c2cc3cc(OC)c(OC)cc3[nH]2)cc1 | > 155 µM |
| Cc1cc([N+](=O)[O-])ccc1Nc1nc2ccccc2n2cnnc12 [N-(2-methyl-4-nitrophenyl)[1,2,4]triazolo[4,3-a]quinoxalin-4-amine] | > 155 µM |
| CC(Sc1ncc(C(F)(F)F)cc1Cl)C(=O)NC(N)=O (stereo not given) | > 155 µM |
| O=C(O)c1cccc(NS(=O)(=O)c2ccc3c(c2)C(=O)c2ccccc2C3=O)c1 [3-[[9,10-bis(oxidanylidene)anthracen-2-yl]sulfonylamino]benzoic acid] | > 155 µM |
| O=C(NC=NOCc1ccc(Cl)cc1Cl)NOCc1ncc(C(F)(F)F)cc1Cl [1-[[3-chloro-5-(trifluoromethyl)-2-pyridinyl]methoxy]-3-[[(2,4-dichlorophenyl)methoxyamino]methylidene]urea] | > 155 µM |
| CCN(CC)c1ccc(/C=N/NC(=O)CNC(=O)/C=C/c2ccco2)cc1 [MLS000912185] | > 155 µM |
| CCC(C)c1ccccc1NC(=O)COC(=O)C1=NN(c2ccccc2)C(=O)CC1 (stereo not given) [6-oxo-1-phenyl-4,5-dihydropyridazine-3-carboxylic acid [2-(2-butan-2-ylanilino)-2-oxoethyl] ester] | > 155 µM |
| Cc1nonc1C1CCCN1Cc1c[nH]nc1-c1ccc(-c2ccccc2)cc1 (stereo not given) [SMR000316348] | > 155 µM |
| NC(=O)COc1ccc2oc(=O)cc(-c3cc4ccccc4o3)c2c1 [SMR000641652] | > 155 µM |
| CCSc1nc(N2CCOCC2)c2c(c1C#N)CCCC2 [3-(ethylthio)-1-(4-morpholinyl)-5,6,7,8-tetrahydroisoquinoline-4-carbonitrile] | > 155 µM |
| COc1ccc(NC(=O)COC(=O)C2CCCCC2)c([N+](=O)[O-])c1 [SMR000261453] | > 155 µM |
| Cc1cc(/C=C(/C#N)c2cccc(F)c2)c(C)n1-c1cccnc1 [3-[2,5-dimethyl-1-(3-pyridinyl)-1H-pyrrol-3-yl]-2-(3-fluorophenyl)acrylonitrile] | > 155 µM |
| Cc1c(OCC(N)=O)ccc2c(-c3ccccc3)cc(=O)oc12 [2-(8-methyl-2-oxidanylidene-4-phenyl-chromen-7-yl)oxyethanamide] | > 155 µM |
| Cc1ccc(Nc2[nH]nc(C)c2[N+](=O)[O-])c(C)c1 [MLS000700556] | > 155 µM |
| CCOc1ccc(N(C)S(=O)(=O)c2cc(-c3cc(C)no3)ccc2CC)cc1 [N-(4-ethoxyphenyl)-2-ethyl-N-methyl-5-(3-methyl-1,2-oxazol-5-yl)benzenesulfonamide] | > 155 µM |
| COc1ccc(Nc2ccc(C(F)(F)F)cc2[N+](=O)[O-])cn1 [SMR000688981] | > 155 µM |

Now from value to compound:

| IC50 | Compound |
| --- | --- |
| > 155 µM | N#Cc1c(N2CCCC2)ccc(Br)c1Cl [3-bromo-2-chloro-6-tetrahydro-1H-pyrrol-1-ylbenzonitrile] |
| > 155 µM | c1ccc2c(c1)nc(N1CCOCC1)c1nnnn12 [4-(4-tetrazolo[1,5-a]quinoxalinyl)morpholine] |
| > 155 µM | O=C(O)c1cc(O)c2c(c1)C(=O)c1cccc(O)c1C2=O [RHEIN] |
| > 155 µM | CCOC(=O)C1CCN(C(=O)c2c(C)oc3c2C(=O)c2ccccc2C3=O)CC1 |
| > 155 µM | O=C1C(Cl)=C(Nc2ccc3cn[nH]c3c2)C(=O)c2ccccc21 |
| > 155 µM | N#Cc1c(-n2cccc2C=O)sc2c1CCCC2 [2-(2-methanoylpyrrol-1-yl)-4,5,6,7-tetrahydro-1-benzothiophene-3-carbonitrile] |
| > 155 µM | O=c1oc2ccccc2c2c1cnc1ccccc12 [MLS000518195] |
| > 155 µM | CCOC(=O)C(C#N)C=Nc1ccccc1OC (stereo not given) [MLS000568396] |
| > 155 µM | Cc1ccc(Nc2ccc(C(F)(F)F)cc2[N+](=O)[O-])cc1 |
